Assay results reported in US20240336601A1 (Chulalongkorn University, priority 2020, published 2024).

How the values were obtained:
[1] = biological target: interaction between PD-1 and PD-L1 (Homo sapiens, UniProt Q9NZQ7); assay: PD-1/PD-L1 protein-protein interaction assay (ALPHA); type: binding; details: 2 nM His-tagged human PD-L1, 0.6 nM PD-1-Fc, AlphaScreen
Procedure: PD-1′PD-L1 Protein-Protein Interaction Assay
Amplified Luminescent Proximity Homogeneous Assay (ALPHA) platform was used to evaluate the ability of the compounds to block the interaction between PD-1 and PD-L1. The assays were performed in half volume white 96-well plate in a final volume of 40 μl. Compounds at various concentrations were preincubated with 2 nM His tagged recombinant human PD-L1 protein and 0.6 nM recombinant PD-1 protein with Fc-tag (both reagents were purchased from AcroBiosystems) for 40 minutes. After the preincubation, 20 μg/mL of Alphascreen Ni chelate donor beads (PerkinElmer, USA) and Protein A acceptor beads (PerkinElmer, USA) were added into the well and incubated under reduced light at 25° C. for 120 minutes. The signal was measured with the EnSight Multimode Plate Reader. IC50 values were calculated from the four-parameter logistic curve fit.

PD-1/PD-L1 interaction = biological target: T1, PD-1/PD-L1 interaction (Homo sapiens, UniProt Q9NZQ7); assay: PD-1/PD-L1 blockage cell-based bioassay (Jurkat NFAT luciferase / CHO-PDL1 co-culture); details: Jurkat NFAT cells co-cultured with CHO-PDL1 cells, 6 h, luminescence
T1 construct: expressed in transfected cells
T1 sequence (Q9NZQ7 19-290): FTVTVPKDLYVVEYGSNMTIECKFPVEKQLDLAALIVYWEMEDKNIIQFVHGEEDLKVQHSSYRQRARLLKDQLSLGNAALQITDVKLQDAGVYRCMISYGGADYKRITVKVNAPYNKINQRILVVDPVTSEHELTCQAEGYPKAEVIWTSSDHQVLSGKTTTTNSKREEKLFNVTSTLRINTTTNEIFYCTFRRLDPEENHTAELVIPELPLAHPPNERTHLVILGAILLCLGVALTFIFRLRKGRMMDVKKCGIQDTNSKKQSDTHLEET
Procedure: PD-1/PD-L1 Blockage Cell-Based Bioassay
Jurkat T cells expressing human PD-1 and luciferase gene reporter driven by TCR-mediated NFAT response element (Jurkat NFAT) were co-cultured with CHO-kl cells expressing human PD-L1 and surface-bound TCR activator (CHO-PDL1). […] CHO-PDL1 cells (20,000 cells/well) were seeded overnight. Compounds were added on CHO-PDL1 and incubated for 2 h at 37° C. Jurkat NFAT cells (20,000 cells/well) were diluted in RPMI assay medium (RPMI1640 with 1% FBS) and added into each well. After co-incubation for 6 h at 37° C., luminescence was determined by adding Bio-Glo™ Luciferase reagent (Promega) and measured with a luminescence plate reader. EC50 values were calculated from the four-parameter concentration-response curves.

Chain of interaction between PD-1 and PD-L1 (Q9NZQ7 19-238 limits assumed): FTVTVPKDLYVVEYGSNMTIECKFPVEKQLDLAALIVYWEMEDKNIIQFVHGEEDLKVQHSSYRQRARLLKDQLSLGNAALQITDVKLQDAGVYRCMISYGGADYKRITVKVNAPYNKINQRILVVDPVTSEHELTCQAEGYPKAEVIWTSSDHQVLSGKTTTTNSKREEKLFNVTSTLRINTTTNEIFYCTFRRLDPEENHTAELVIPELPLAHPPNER

SMILES	IC50 [1]	IC50 (PD-1/PD-L1 interaction)
COc1cc(-n2ncc3c(-c4cccc(-c5ccc(CN6CC7(CNC(=O)C7)C6)c(OC)n5)c4Cl)cccc32)cc(OC)c1CNCC(C)(C)C(N)=O [Example 107, 3-((4-(4-(2-chloro-3-(6-methoxy-5-((7-oxo-2,6-diazaspiro[3.4]octan-2-yl)methyl)pyridin-2-yl)phenyl)-1H-indazol-1-yl)-2,6-dimethoxybenzyl)amino)-2,2-dimethylpropanamide]	< 1 nM	< 200 nM
COc1cc(-n2ncc3c(-c4cccc(-c5ccc(CN6CC(C)(C(=O)NC7CC7)C6)c(OC)n5)c4Cl)cccc32)cc(OC)c1CNC[C@@H]1CCC(=O)N1 [Example 92, (S)-1-((6-(2-chloro-3-(1-(3,5-dimethoxy-4-((((5-oxopyrrolidin-2-yl)methyl)amino)methyl)phenyl)-1H-indazol-4-yl)phenyl)-2-methoxypyridin-3-yl)methyl)-N-cyclopropyl-3-methylazetidine-3-carboxamide]	< 1 nM	< 200 nM
COc1cc(-n2ncc3c(-c4cccc(-c5ccc(CN6CC7(CNC(=O)C7)C6)c(OC)n5)c4Cl)cccc32)cc(OC)c1CNC[C@H]1C[C@@H](O)C1 [Example 91, 2-((6-(2-chloro-3-(1-(4-(((((cis)-3-hydroxycyclobutyl)methyl)amino)methyl)-3,5-dimethoxyphenyl)-1H-indazol-4-yl)phenyl)-2-methoxypyridin-3-yl)methyl)-2,6-diazaspiro[3.4]octan-7-one]	1 to 10 nM	201 to 2000 nM
